Measured values published in ChEMBL document CHEMBL1139114, “Identification and structure-activity relationships of substituted pyridones as inhibitors of Pim-1 kinase” (Bioorg Med Chem Lett, 2007).

Target: Dual specificity mitogen-activated protein kinase kinase 1 (Homo sapiens, UniProt Q02750)
Experiment: Inhibition of MEK1 kinase

Sequence of Dual specificity mitogen-activated protein kinase kinase 1 (Q02750 whole entry): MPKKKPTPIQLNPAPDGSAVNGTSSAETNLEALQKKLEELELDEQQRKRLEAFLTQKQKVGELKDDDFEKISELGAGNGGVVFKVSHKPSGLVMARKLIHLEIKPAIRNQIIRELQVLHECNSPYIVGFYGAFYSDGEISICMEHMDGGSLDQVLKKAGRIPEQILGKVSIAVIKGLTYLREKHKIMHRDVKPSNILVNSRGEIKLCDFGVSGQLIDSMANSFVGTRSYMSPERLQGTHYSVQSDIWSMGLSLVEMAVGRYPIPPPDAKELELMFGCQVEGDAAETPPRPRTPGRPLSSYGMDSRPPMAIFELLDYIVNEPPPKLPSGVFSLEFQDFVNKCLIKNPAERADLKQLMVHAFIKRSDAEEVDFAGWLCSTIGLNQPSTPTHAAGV

**Q.** Which IC50 does the source give for `N#Cc1c(-c2ccccc2)cc(-c2cc(Br)ccc2O)[nH]c1=O` here?
**A.** > 20 µM

Target: Serine/threonine-protein kinase pim-2 (Homo sapiens, UniProt Q9P1W9)
Sequence (Q9P1W9 whole entry): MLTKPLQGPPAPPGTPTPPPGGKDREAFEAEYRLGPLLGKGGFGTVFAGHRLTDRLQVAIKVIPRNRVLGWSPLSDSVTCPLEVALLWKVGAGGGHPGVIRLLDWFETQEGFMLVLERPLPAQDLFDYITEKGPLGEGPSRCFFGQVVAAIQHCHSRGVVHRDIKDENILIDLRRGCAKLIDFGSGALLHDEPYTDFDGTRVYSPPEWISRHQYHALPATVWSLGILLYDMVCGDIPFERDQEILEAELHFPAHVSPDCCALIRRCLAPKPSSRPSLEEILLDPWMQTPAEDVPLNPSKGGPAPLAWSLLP
Experiment: Inhibition of Pim2 kinase

**Q.** `N#Cc1c(-c2ccccc2)cc(-c2cc(Br)ccc2O)[nH]c1=O` was tested. Which IC50 did it give?
**A.** > 20 µM

Target: Serine/threonine-protein kinase pim-1 (Homo sapiens, UniProt P11309)
Sequence (P11309 whole entry): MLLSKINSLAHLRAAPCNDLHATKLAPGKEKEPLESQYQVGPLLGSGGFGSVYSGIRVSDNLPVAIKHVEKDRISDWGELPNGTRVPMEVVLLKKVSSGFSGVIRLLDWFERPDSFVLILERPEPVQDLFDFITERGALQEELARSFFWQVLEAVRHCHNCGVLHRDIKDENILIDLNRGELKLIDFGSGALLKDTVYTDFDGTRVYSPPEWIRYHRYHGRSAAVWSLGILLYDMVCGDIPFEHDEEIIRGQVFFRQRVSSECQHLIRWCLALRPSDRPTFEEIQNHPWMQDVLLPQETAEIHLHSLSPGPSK
Experiment: Inhibition of Pim1 kinase

**Q.** With `Cc1ccc(O)c(-c2cc(-c3ccccc3)c(C#N)c(=O)[nH]2)c1` as the compound, how does the IC50 read?
**A.** 0.34 µM

**Q.** Which IC50 does the source give for `Cc1ccc(O)c(-c2cc(-c3ccccc3)[nH]c(=O)c2C#N)c1` here?
**A.** 0.37 µM

**Q.** For `N#Cc1c(-c2ccccc2)cc(-c2ccc(O)cc2)nc1N`, which IC50 is on record?
**A.** 4.41 µM

**Q.** With `N#Cc1c(-c2ccc(Cl)cc2)c2c([nH]c1=O)-c1ccccc1OC2` as the compound, how does the IC50 read?
**A.** 0.92 µM

**Q.** For `N#Cc1c(-c2ccccc2Cl)c2c([nH]c1=O)-c1ccccc1OC2`, which IC50 is on record?
**A.** 1.23 µM

**Q.** For `CCc1ccc(O)c(-c2cc(-c3cccc(Cl)c3)c(C#N)c(=O)[nH]2)c1`, which IC50 is on record?
**A.** 1.03 µM

**Q.** `COc1ccc(-c2cc(C(F)(F)F)c(C#N)c(=O)[nH]2)cc1Br` was tested. Which IC50 did it give?
**A.** 1.14 µM

**Q.** How did the IC50 turn out when `N#Cc1c(-c2ccncc2)c2c([nH]c1=O)-c1ccccc1CC2` was run?
**A.** > 20 µM

**Q.** With `N#Cc1c(-c2ccccn2)c2c([nH]c1=O)-c1ccccc1OC2` as the compound, how does the IC50 read?
**A.** > 20 µM

**Q.** Which IC50 does the source give for `N#Cc1c(-c2cccnc2)c2c([nH]c1=O)-c1ccccc1SC2` here?
**A.** 4.79 µM

**Q.** Which IC50 does the source give for `N#Cc1c(-c2ccccc2Cl)c2c([nH]c1=O)-c1ccccc1SC2` here?
**A.** 20 µM

**Q.** `CCOC(=O)C1=C2C(=O)Oc3ccccc3C2N(C)C(=O)C1` (stereo not given) was tested. Which IC50 did it give?
**A.** > 20 µM

**Q.** Which IC50 does the source give for `N#Cc1c(-c2ccc(F)cc2)c2c([nH]c1=O)-c1ccccc1SC2` here?
**A.** > 20 µM

**Q.** For `N#Cc1c(-c2ccc(O)cc2)cc(-c2ccccc2O)[nH]c1=O`, which IC50 is on record?
**A.** 0.43 µM

**Q.** How did the IC50 turn out when `COc1ccc(-c2c3c([nH]c(=O)c2C#N)-c2ccccc2OC3)cc1` was run?
**A.** > 20 µM

**Q.** With `Nc1n[nH]c2nc(-c3cc(Br)ccc3O)cc(-c3ccccc3)c12` as the compound, how does the IC50 read?
**A.** 1.77 µM

**Q.** For `N#Cc1c(-c2ccncc2)c2c([nH]c1=O)-c1ccccc1OC2`, which IC50 is on record?
**A.** 20 µM

Target: Dual specificity mitogen-activated protein kinase kinase 2 (Homo sapiens, UniProt P36507)
Sequence (P36507 whole entry): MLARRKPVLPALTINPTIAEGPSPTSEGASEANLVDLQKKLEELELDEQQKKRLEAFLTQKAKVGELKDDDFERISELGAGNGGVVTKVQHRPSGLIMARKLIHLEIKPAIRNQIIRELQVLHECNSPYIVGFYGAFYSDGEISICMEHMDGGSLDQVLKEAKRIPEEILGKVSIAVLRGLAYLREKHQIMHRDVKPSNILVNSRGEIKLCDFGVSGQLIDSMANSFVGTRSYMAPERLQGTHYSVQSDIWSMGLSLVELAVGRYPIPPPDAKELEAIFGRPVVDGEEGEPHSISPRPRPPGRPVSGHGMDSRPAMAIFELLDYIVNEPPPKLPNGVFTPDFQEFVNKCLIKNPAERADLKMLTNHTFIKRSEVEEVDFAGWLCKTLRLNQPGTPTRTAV
Experiment: Inhibition of MEK2 kinase

**Q.** With `N#Cc1c(-c2ccccc2)cc(-c2cc(Br)ccc2O)[nH]c1=O` as the compound, how does the IC50 read?
**A.** > 20 µM
